From ChEMBL document CHEMBL1136697, “3D-QSAR studies on thieno[3,2-d]pyrimidines as phosphodiesterase IV inhibitors” (Bioorg Med Chem Lett, 2003) come the findings set out here.

SMILES strings stand for the structures.

In this experiment the target is Phosphodiesterase 4 (Cavia porcellus). The experiment in a line: Inhibitory activity against (PDE IV) phosphodiesterase IV in guinea pig articular tissue.
What is called IC50 is the concentration needed to halve the response being measured. Higher therefore signals a need for much substance. With `c1ccc(CNc2nc(CN3CCCCC3)nc3ccsc23)cc1`, the IC50 was found to be 65 µM.

For `c1ccc(CNc2nc(CCCCOc3ccccc3)nc3ccsc23)cc1`, the IC50 worked out at 4.7 µM.

Consider `CCCCc1nc(NCc2ccccc2)c2occc2n1`, for which the IC50 is 1.1 µM.
